# Key:
# [1] = system: Candida tropicalis; assay: Antimicrobial activity against Candida tropicalis CGMCC2.3967 after 48 hrs by modified microdilution method; type: functional; conditions: CGMCC2.3967, 48 h
# [2] = system: Aspergillus niger; assay: Antimicrobial activity against Aspergillus niger CGMCC3.316 after 48 hrs by modified microdilution method; type: functional; conditions: CGMCC3.316, 48 h
# [3] = system: Candida albicans; assay: Antimicrobial activity against Candida albicans CGMCC2.2086 after 48 hrs by modified microdilution method; type: functional; conditions: CGMCC2.2086, 48 h
# [4] = system: HepG2; assay: Cytotoxicity against human HepG2 cells assessed as cell survival after 48 hrs by MTT assay; type: functional, cell-based; conditions: HepG2, 48 h
# [5] = system: Pseudomonas fluorescens; assay: Antimicrobial activity against Pseudomonas fluorescens CGMCC1.1828 after 24 hrs by modified microdilution method; type: functional; conditions: CGMCC1.1828, 24 h
# [6] = system: Staphylococcus aureus; assay: Antimicrobial activity against Staphylococcus aureus CGMCC1.1361 after 24 hrs by modified microdilution method; type: functional; conditions: CGMCC1.1361, 24 h
# [7] = system: Escherichia coli; assay: Antimicrobial activity against Escherichia coli CGMCC1.1571 after 24 hrs by modified microdilution method; type: functional; conditions: CGMCC1.1571, 24 h
# [8] = Cytotoxicity against human […] cells assessed as cell survival after 48 hrs by MTT assay; type: functional, cell-based
# [9] = system: Bacillus subtilis; assay: Antimicrobial activity against Bacillus subtilis CGMCC1.1162 after 24 hrs by modified microdilution method; type: functional; conditions: CGMCC1.1162, 24 h
SMILES,MIC [1],MIC [2],MIC [3],IC50 [4],MIC [5],MIC [6],MIC [7],IC50 [8],MIC [9]
COC(=O)[C@]12CC[C@@H](C)[C@H](C)[C@H]1C1=CC[C@@H]3[C@@]4(C)Cc5c([nH]c6ccc(C)cc56)C(C)(C)[C@@H]4CC[C@@]3(C)[C@]1(C)CC2,62.5 µg/mL,31.2 µg/mL,> 100 µg/mL,> 100 µM,62.5 µg/mL,31.2 µg/mL,> 100 µg/mL,> 100 µM,31.2 µg/mL
COc1ccc2[nH]c3c(c2c1)C[C@]1(C)[C@H]2CC=C4[C@@H]5[C@@H](C)[C@H](C)CC[C@]5(C(=O)O)CC[C@@]4(C)[C@]2(C)CC[C@H]1C3(C)C,62.5 µg/mL,> 100 µg/mL,> 100 µg/mL,34.6 µM,62.5 µg/mL,31.2 µg/mL,31.2 µg/mL,31.7 µM,31.2 µg/mL
COC(=O)[C@]12CC[C@@H](C)[C@H](C)[C@H]1C1=CC[C@@H]3[C@@]4(C)Cc5c([nH]c6ccc(Cl)cc56)C(C)(C)[C@@H]4CC[C@@]3(C)[C@]1(C)CC2,> 100 µg/mL,62.5 µg/mL,> 100 µg/mL,> 100 µM,62.5 µg/mL,62.5 µg/mL,> 100 µg/mL,> 100 µM,31.2 µg/mL
CCOc1ccc2[nH]c3c(c2c1)C[C@]1(C)[C@H]2CC=C4[C@@H]5[C@@H](C)[C@H](C)CC[C@]5(C(=O)NCCCN(C)C)CC[C@@]4(C)[C@]2(C)CC[C@H]1C3(C)C,> 100 µg/mL,> 100 µg/mL,> 100 µg/mL,6.25 µM,62.5 µg/mL,62.5 µg/mL,31.2 µg/mL,4.88 µM,31.2 µg/mL
COC(=O)[C@]12CC[C@@H](C)[C@H](C)[C@H]1C1=CC[C@@H]3[C@@]4(C)Cc5c([nH]c6ccccc56)C(C)(C)[C@@H]4CC[C@@]3(C)[C@]1(C)CC2,62.5 µg/mL,62.5 µg/mL,62.5 µg/mL,> 100 µM,62.5 µg/mL,15.6 µg/mL,31.2 µg/mL,> 100 µM,31.2 µg/mL
C[C@H]1[C@H](C)CC[C@]2(C(=O)NCCCN(C)C)CC[C@]3(C)C(=CC[C@@H]4[C@@]5(C)Cc6c([nH]c7ccc(Cl)cc67)C(C)(C)[C@@H]5CC[C@]43C)[C@H]12,62.5 µg/mL,31.2 µg/mL,62.5 µg/mL,4.02 µM,31.2 µg/mL,7.8 µg/mL,15.6 µg/mL,2.78 µM,15.6 µg/mL
COc1cccc2c1C(=O)c1c(O)c3c(c(O)c1C2=O)C[C@@](O)(C(=O)CO)C[C@@H]3O[C@H]1C[C@H](N)[C@H](O)[C@H](C)O1 [DOXORUBICIN],,,,0.77 µM,,,,0.62 µM,
C[C@H]1[C@H](C)CC[C@]2(C(=O)NCCCN(C)C)CC[C@]3(C)C(=CC[C@@H]4[C@@]5(C)Cc6c([nH]c7ccccc67)C(C)(C)[C@@H]5CC[C@]43C)[C@H]12,62.5 µg/mL,31.2 µg/mL,31.2 µg/mL,2.78 µM,31.2 µg/mL,15.6 µg/mL,15.6 µg/mL,2.12 µM,7.8 µg/mL
C[C@H]1[C@H](C)CC[C@]2(C(=O)O)CC[C@]3(C)C(=CC[C@@H]4[C@@]5(C)Cc6c([nH]c7ccc(Cl)cc67)C(C)(C)[C@@H]5CC[C@]43C)[C@H]12,> 100 µg/mL,> 100 µg/mL,> 100 µg/mL,30.9 µM,31.2 µg/mL,31.2 µg/mL,31.2 µg/mL,29.9 µM,31.2 µg/mL
COC(=O)[C@]12CC[C@@H](C)[C@H](C)[C@H]1C1=CC[C@@H]3[C@@]4(C)Cc5c([nH]c6c(OC)cccc56)C(C)(C)[C@@H]4CC[C@@]3(C)[C@]1(C)CC2,> 100 µg/mL,> 100 µg/mL,> 100 µg/mL,> 100 µM,> 100 µg/mL,31.2 µg/mL,> 100 µg/mL,> 100 µM,31.2 µg/mL
C[C@H]1[C@H](C)CC[C@]2(C(=O)O)CC[C@]3(C)C(=CC[C@@H]4[C@@]5(C)CCC(=O)C(C)(C)[C@@H]5CC[C@]43C)[C@H]12 [URSONIC ACID],> 100 µg/mL,> 100 µg/mL,> 100 µg/mL,> 100 µM,62.5 µg/mL,62.5 µg/mL,31.2 µg/mL,> 100 µM,31.2 µg/mL
CCOc1ccc2[nH]c3c(c2c1)C[C@]1(C)[C@H]2CC=C4[C@@H]5[C@@H](C)[C@H](C)CC[C@]5(C(=O)O)CC[C@@]4(C)[C@]2(C)CC[C@H]1C3(C)C,> 100 µg/mL,> 100 µg/mL,> 100 µg/mL,33 µM,62.5 µg/mL,62.5 µg/mL,62.5 µg/mL,24.5 µM,62.5 µg/mL

# Reference: ChEMBL document CHEMBL3351749, “Synthesis, in vitro antimicrobial and cytotoxic activities of new carbazole derivatives of ursolic acid” (Bioorg Med Chem Lett, 2015)
